# Target: T1, TLR2 (Homo sapiens, UniProt O60603)
# T1 construct: host or cells: HEK293-TLR2
# Experiment: Pam3CSK4-induced IL-8 secretion in HEK293-TLR2 cells (IL-8 ELISA)
# Type: cell-based
# Settings: compound 1 hour then co-treated with 50 nM Pam3CSK4, FIG. 15
# Procedure: HEK293-TLR2 (expressed at endogenous levels of TLR1) and HEK293-Null cell lines were cultured in 96-well tissue culture plates (BD Biosciences) at a density of 1×10^4 cells/wells, 37° C., 95% air and 5% CO2 for 24 hours. In order to determine the agonist activity, a cell stimulation was achieved by treatment with 50 μM of compound and 50 nM of Pam3CSK4 (Invivogen, San Diego, Calif., USA). In order to determine the antagonist activity, cells were treated with various concentrations of compound for 1 hour and then co-treated with 50 nM of Pam3CSK4. The next day, IL-8 secretion was quantified by human IL-8 ELISA Ready-SET-Go! ® (Second generation) kit (eBioscience, San Diego, Calif., USA) according to the method of the manufacturer's guide, and the quantified results are illustrated in FIG. 15.
# For the dose-dependent analysis of the top three compounds (S06690562, S01688300, S01382085) among the six compounds, the concentrations of the three compounds were varied to 12.5, 25, and 50 μM, and the secretion amount of IL-8 was analyzed as the above method. The results are illustrated in FIG. 16.
# T1 sequence (O60603 21-784): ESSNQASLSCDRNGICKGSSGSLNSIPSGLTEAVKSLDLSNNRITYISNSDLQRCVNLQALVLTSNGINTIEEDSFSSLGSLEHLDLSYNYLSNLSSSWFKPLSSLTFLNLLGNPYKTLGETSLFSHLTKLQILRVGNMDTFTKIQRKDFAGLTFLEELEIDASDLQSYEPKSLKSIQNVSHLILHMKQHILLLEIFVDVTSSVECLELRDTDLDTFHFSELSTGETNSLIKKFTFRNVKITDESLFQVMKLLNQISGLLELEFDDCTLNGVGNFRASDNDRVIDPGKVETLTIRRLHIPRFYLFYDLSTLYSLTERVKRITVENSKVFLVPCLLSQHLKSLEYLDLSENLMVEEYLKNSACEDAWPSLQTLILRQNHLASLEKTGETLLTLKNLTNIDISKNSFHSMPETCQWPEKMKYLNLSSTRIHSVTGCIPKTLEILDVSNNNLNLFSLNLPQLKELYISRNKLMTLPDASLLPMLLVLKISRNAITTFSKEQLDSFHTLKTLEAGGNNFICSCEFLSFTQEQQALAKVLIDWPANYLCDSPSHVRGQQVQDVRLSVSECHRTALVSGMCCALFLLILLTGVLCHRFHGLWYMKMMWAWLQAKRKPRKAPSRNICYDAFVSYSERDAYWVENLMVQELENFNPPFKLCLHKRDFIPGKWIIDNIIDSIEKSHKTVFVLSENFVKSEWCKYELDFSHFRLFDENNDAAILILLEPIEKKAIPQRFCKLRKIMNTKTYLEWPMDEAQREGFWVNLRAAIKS
row,SMILES,Pam3CSK4-induced IL-8 secretion amount
1,COC(=O)c1c(NC(=O)NCCN2CCOCC2)sc2c1CCC2 [Compound S01382085],greatly reduced
2,CCN(Cc1ccncc1)Cc1cccc(OCC(O)CN2CCC(O)CC2)c1 (centres unmarked) [Compound S01688300],greatly reduced
3,CC1CCCN(C(C)CNC(=O)CCNC(=O)C2CC2C)C1 (centres unmarked) [Compound S02276077],greatly reduced
4,Cc1cc(C)c(NC(=O)CNC(=O)CN(C)CC(=O)NCC(F)(F)F)c(C)c1 [Compound S06690562],greatly reduced
5,CC(C)Oc1cccc(CC(=O)N2CCCN(CC(N)=O)CC2)c1 [Compound S06696686],greatly reduced

# Reference: patent publication US10308655B2, “Method of treating Crohn's disease comprising a TLR2 antagonist” (AJOU UNIVERSITY INDUSTRY-ACADEMIC COOPERATION FOUNDATION, priority 2015, dated 2019)
